Data: ChEMBL document CHEMBL1139964, “Biopartitioning micellar chromatography to predict mutagenicity of aromatic amines” (Eur J Med Chem, 2007)
In brackets after ≈: the same amount, converted by molar mass.

Key:
[1] = Solubility in water; type: physicochemical; conditions: buffer
[2] = Partition coefficient, log P of the compound; type: physicochemical; conditions: octanol/water

| SMILES | Solubility [1] | logP [2] |
| --- | --- | --- |
| Nc1ccc2c3c(cccc13)-c1ccccc1-2 | 0.715 g/L (≈ 3.29 mM) |  |
| Nc1c(Br)cc([N+](=O)[O-])cc1[N+](=O)[O-] |  | 2.73 |
| Nc1cccc2cc3ccccc3cc12 | 2.59 g/L (≈ 13.4 mM) |  |
| Nc1ccc2c(c1)Cc1ccccc1-2 | 8.78 g/L (≈ 48.4 mM) |  |
| Nc1ccc(Cc2ccc(N)cc2)cc1 | 1 10^3g/L |  |
| Nc1ccc2cc3ccccc3cc2c1 [2-AMINOANTHRACENE] | 1.3 g/L (≈ 6.73 mM) | 2.62 |
| Nc1ccc(Br)cc1 [4-BROMOANILINE] | 707 g/L (≈ 4110 mM) |  |
| Nc1ccc2ccc3cccc4ccc1c2c34 [AMINOPYRENE] | 0.576 g/L (≈ 2.65 mM) | 4.99 |
| Cc1cc(-c2ccc(N)c(C)c2)ccc1N [ORTHOTOLIDINE] | 1.3 10^3g/L |  |
